Results reported in patent publication US20240269129A1, “GLYCOGEN SYNTHASE KINASE 3 (GSK3) INHIBITORS FOR TREATING CTNNB1 SYNDROME” (Trustees of Tufts College, priority 2021, published 2024).
“Also recorded” adds a separate entry of the source.

What was measured:
GSK3α = GSK3α (Homo sapiens, UniProt P49840); experiment: GSK3α inhibition, motility-shift microfluidic assay (Caliper) at Km of ATP; format: biochemical
Description: FIG. 12. […] (a) General synthetic scheme for synthesis of the pyrazolo-tetrahydroquinolinone scaffold. (b) IC50 GSK3α and GSK3β values for inhibition were determined at Km of ATP in a motility-shift microfluidic assay (Caliper, MA) measuring phosphorylation of a synthetic substrate. Values are average of three or more experiments. Data are shown as IC50 values in μM±standard deviation. Compounds were tested in duplicate in a 12-point dose curve with 3-fold dilution starting at 33.3 μM. […] Each inhibitor was screened against 311 kinases at a 10 μM concentration.

GSK3β = GSK3β (Homo sapiens, UniProt P49841); experiment: GSK3β inhibition, motility-shift microfluidic assay (Caliper) at Km of ATP; format: biochemical; details: for IC50: at Km of ATP
Sequence of GSK3β (P49841 whole entry): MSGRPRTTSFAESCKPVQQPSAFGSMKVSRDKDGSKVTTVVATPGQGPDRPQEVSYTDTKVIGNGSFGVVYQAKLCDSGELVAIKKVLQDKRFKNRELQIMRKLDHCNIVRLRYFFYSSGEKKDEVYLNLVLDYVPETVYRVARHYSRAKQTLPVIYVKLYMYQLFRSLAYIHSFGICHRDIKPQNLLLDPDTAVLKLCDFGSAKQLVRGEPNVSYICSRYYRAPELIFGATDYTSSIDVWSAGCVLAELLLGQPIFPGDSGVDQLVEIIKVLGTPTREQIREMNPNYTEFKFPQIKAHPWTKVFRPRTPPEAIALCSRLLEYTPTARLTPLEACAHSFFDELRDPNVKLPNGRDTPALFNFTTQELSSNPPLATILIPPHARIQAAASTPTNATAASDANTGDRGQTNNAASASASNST
Description: FIG. 12. Design and characterization of first paralog selective inhibitors of GSK3α and GSK3β. (a) General synthetic scheme for synthesis of the pyrazolo-tetrahydroquinolinone scaffold. (b) IC50 GSK3α and GSK3β values for inhibition were determined at Km of ATP in a motility-shift microfluidic assay (Caliper, MA) measuring phosphorylation of a synthetic substrate. Values are average of three or more experiments. Data are shown as IC50 values in μM±standard deviation. Compounds were tested in duplicate in a 12-point dose curve with 3-fold dilution starting at 33.3 μM. […] Each inhibitor was screened against 311 kinases at a 10 μM concentration. Kinases with >50% inhibition are depicted (percentage inhibition proportional to size of red dot).
Structure-based design has been aimed towards maximizing steric requirement at the R position and the corresponding differences within the selectivity pockets of GSK3α and GSK3β. […] These modifications and increased binding affinities were tolerant of simple substitutions on the phenyl ring (cf. BRD0320).

[1] = tested on: β-catenin heterozygous mice; experiment: Muscle grip strength test in β-catenin heterozygous mice; format: in vivo, mouse; details: 30 mg/kg doses, young adult βcatHet mice
Description: (§1) Drug treatments using small molecule GSK3α and GSK3β inhibitors were tested in vivo, for safe and effective amelioration of the phenotypes by assaying β-catenin protein levels, learning and motor skills effects of drug vs. vehicle on CTNNB1 heterozygote mice and control littermates. In an example, a study includes administering the small molecule GSK3 inhibitor in sequential daily doses to the βcatHet mice. The daily doses can be administered, for example, for five days, or four days, or any other number of days. At some time after the last dose, such as 1 hour, the grip strength test can be administered. Additionally, the contextual fear conditioning can be performed. Sometime later, such as 1 day later, the contextual fear conditioning tests can be performed.
(§2) Mice were administered 30 mg/kg doses of the respective compounds in the present Example. Samples of the brain and muscle from control mice, βcatHet mice (untreated), and βcatHet mice (treated) were tested for levels of β-catenin.

[2] = tested on: β-catenin heterozygous mice; experiment: Contextual fear conditioning (learning) in β-catenin heterozygous mice; format: in vivo, mouse; details: 30 mg/kg doses, young adult βcatHet mice
Description: FIG. 2. […] Classic spatial learning task that pairs association of a particular context with a mild foot shock; freezing in the context is measured as an indicator of learning; n=26 control, 24 BcatHet; p<0.0001 Repeated Measure ANOVA; **p<0.01, ***p<0.001 multiple comparison t-test.
as §1, §2

β-catenin protein levels = β-catenin protein levels in brain and skeletal muscle of treated β-catenin heterozygous mice, quantitative immunoblotting; format: in vivo, mouse; details: 30 mg/kg doses, young adult βcatHet mice
Description: as §1, §2

[3] = tested on: CTNNB1 heterozygous iPSCs; experiment: β-catenin and DKK1 protein levels in CTNNB1 heterozygous iPSCs, pilot dose-response, quantitative immunoblotting; format: cell-based, human
Description: FIG. 14. FIG. 1. GSK3α,β inhibitors increase β-cat protein levels in (a) human CTNNB1 heterozygous glutamatergic neurons treated with BRD0320, relative to vehicle-treated het neurons, and (b) CTNNB1 het iPSCs treated with BRD0320 and LY2090314 at the indicated concentrations. Wnt target, DKK1 protein levels show similar increases to β-cat. Histograms showing comparison to (a) WT neuron levels set as 1 and (b) vehicle-treated het iPSC levels set as 1. LY2090314 increases β-cat protein levels at 10× lower concentration relative to BRD0320.
A human pluripotent stem cell line (iPSC) that lacks any pathogenic variants was made heterozygous for CTNNB1 via CRISPR-Cas9 gene editing of one allele. A premature termination (PTC+1) frameshift was introduced based on a CTNNB1 syndrome patient mutation. Haploinsufficiency was confirmed. The iPSCs were differentiated to cortical glutamatergic neurons by transfection with the transcription factor human neurogenin 2. […] As shown in FIG. 14 (a), beta-catenin protein levels were measured 24 hrs later by quantitative immunoblotting in the GSK3 inhibitor treated CTNNB1 heterozygous neurons, relative to vehicle-treated heterozygous neurons and wildtype neurons.
Beta-catenin protein levels were measured 24 hrs later by quantitative immunoblotting in the GSK3 inhibitor treated CTNNB1 heterozygous iPSCs, relative to vehicle-treated heterozygous iPSCs.

Sequence of GSK3α (P49840 whole entry): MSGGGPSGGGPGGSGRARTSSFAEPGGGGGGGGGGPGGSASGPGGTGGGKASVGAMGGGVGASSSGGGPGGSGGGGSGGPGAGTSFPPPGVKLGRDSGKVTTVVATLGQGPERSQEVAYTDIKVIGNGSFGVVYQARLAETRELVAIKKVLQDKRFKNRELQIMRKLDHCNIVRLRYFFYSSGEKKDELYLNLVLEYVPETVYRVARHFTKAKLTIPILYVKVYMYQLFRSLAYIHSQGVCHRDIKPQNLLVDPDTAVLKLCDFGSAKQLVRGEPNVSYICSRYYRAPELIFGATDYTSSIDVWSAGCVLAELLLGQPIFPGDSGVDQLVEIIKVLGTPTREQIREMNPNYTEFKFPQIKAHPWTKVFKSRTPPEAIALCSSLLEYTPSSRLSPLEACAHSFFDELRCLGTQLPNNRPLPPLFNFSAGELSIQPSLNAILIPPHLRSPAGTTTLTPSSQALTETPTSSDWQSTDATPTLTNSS

| SMILES | IC50 (GSK3β) [nM] | muscle grip strength [1] | learning (contextual fear conditioning) [2] | further results |
| --- | --- | --- | --- | --- |
| CC1(C)CC(=O)C2=C(C1)Nc1n[nH]c(C3CC3)c1[C@]2(C)c1ccccc1 [BRD0209] |  |  |  | potency for the two paralogs GSK3α and GSK3β (GSK3α): Equipotency |
| CC[C@@]1(c2ccccc2)C2=C(CC(C)(C)CC2=O)Nc2[nH]ncc21 [BRD0705] | 515 | did not display a significant trend to improvements; also recorded: slight trend (not significant) toward improvements | did not display a significant trend to improvements; also recorded: slight trend (not significant) toward improvements |  |
| CC(C)(C)Cc1[nH]nc2c1[C@](C)(c1ccccc1)C1=C(CC(C)(C)CC1=O)N2 [BRD3731] | 15 | significant increase; also recorded: trend toward improvement | slight significant improvement | selectivity for GSK3β (GSK3β): 14 fold; β-catenin protein levels in β-catenin heterozygous mouse brain and skeletal muscle relative to vehicle treated heterozygote (β-catenin protein levels): significantly increased; IC50 (GSK3α; at Km of ATP): 215 nM |
| O=C1NC(=O)C(c2cnc3ccccn23)=C1c1cn2c3c(cc(F)cc13)CN(C(=O)N1CCCCC1)CC2 [LY2090314, 3-(9-fluoro-2-(piperidine-1-carbonyl)-1,2,3,4-tetrahydro-[1,4]diazepino[6,7,1-hi]indol-7-yl)-4-(imidazo[1,2-a]pyridin-3-yl)-1H-pyrrole-2,5-dione] |  |  |  | β-cat protein levels in CTNNB1 het iPSCs relative to vehicle-treated het iPSCs ([3]; BRD0320 10 μM, 30 μM, LY2090314 0.1 μM, 0.3 μM, 24 hrs): increase; concentration that increases β-cat protein levels, relative to BRD0320 ([3]; CTNNB1 het iPSCs): 10 × lower |
